Assay: Remote loading of carfilzomib precipitate into liposomes (drug and lipid by HPLC after purification)
Type: physicochemical
[1] = 250 mM ammonium sulfate liposomes, drug added at 200 g drug/mol HSPC
[2] = input drug/HSPC 91.8 g/mol, [(NH4)2SO4] 250 mM
[3] = input drug/HSPC 167.3 g/mol, [(NH4)2SO4] 250 mM
[4] = input drug/HSPC 251.8 g/mol, [(NH4)2SO4] 250 mM
[5] = input drug/HSPC 338.1 g/mol, [(NH4)2SO4] 250 mM
[6] = input drug/HSPC 432.8 g/mol, [(NH4)2SO4] 250 mM
[7] = input drug/HSPC 450.6 g/mol, [(NH4)2SO4] 500 mM
[8] = input drug/HSPC 545.9 g/mol, [(NH4)2SO4] 500 mM
[9] = input drug/HSPC 639.2 g/mol, [(NH4)2SO4] 500 mM
[10] = input drug/HSPC 639.2 g/mol, [(NH4)2SO4] 500 mM, listed as Carfilzomib
[11] = input drug/HSPC 758.7 g/mol, [(NH4)2SO4] 500 mM
[12] = input drug/HSPC 758.7 g/mol, [(NH4)2SO4] 500 mM, listed as Carfilzomib
[13] = triethylammonium sulfate gradient, input 650 g drug/mol HSPC, at 30 min

**Q.** Which results are given for CC(C)C[C@H](NC(=O)[C@H](CCc1ccccc1)NC(=O)CN1CCOCC1)C(=O)N[C@@H](Cc1ccccc1)C(=O)N[C@@H](CC(C)C)C(=O)[C@@]1(C)CO1 [carfilzomib]?
**A.** final drug to lipid ratio [1]: 136.9±7.35 g drug/mol of HSPC; loading efficiency [1]: 67.94±3.67%; loading efficiency (DMSO 1% and above (up to 10% v/v), input 200 ug/umol, ammonium sulfate liposomes): 74-94%; loading (DMSO absent): practically no loading; final drug load (control liposomes with 250 mM sodium sulfate (no gradient), drug added at 200 g drug/mol HSPC): 29.01±0.79 g drug/mol of HSPC; effect of time between precipitate formation and loading on loading efficiency (delay up to 12 h): does not have a significant impact; efficiency of remote loading (drug added as solid powder, 65 C for 30 min, 100 g drug/mol HSPC): 3.88%±0.053%; efficiency of remote loading (drug added as solid powder, 65 C for 120 min, 100 g drug/mol HSPC): 3.47%±0.030%; Drug payload/carrier weight ratio [2]: 0.07 g drug/g total lipid; Output drug/HSPC [2]: 83.5 g/mol; efficiency [2]: 90.9%; Drug payload/carrier weight ratio [3]: 0.11 g drug/g total lipid; Output drug/HSPC [3]: 127.2 g/mol; efficiency [3]: 76.0%; Drug payload/carrier weight ratio [4]: 0.15 g drug/g total lipid; Output drug/HSPC [4]: 174.1 g/mol; efficiency [4]: 69.1%; Drug payload/carrier weight ratio [5]: 0.18 g drug/g total lipid; Output drug/HSPC [5]: 210.7 g/mol; efficiency [5]: 62.3%; Drug payload/carrier weight ratio [6]: 0.20 g drug/g total lipid; Output drug/HSPC [6]: 240.5 g/mol; efficiency [6]: 55.6%; Drug payload/carrier weight ratio [7]: 0.29 g drug/g total lipid; Output drug/HSPC [7]: 345.2 g/mol; efficiency [7]: 76.6%; Drug payload/carrier weight ratio [8]: 0.32 g drug/g total lipid; Output drug/HSPC [8]: 380.9 g/mol; efficiency [8]: 69.8%; Drug payload/carrier weight ratio [9]: 0.37 g drug/g total lipid; Output drug/HSPC [9]: 440 ± 10.2 g/mol; efficiency [9]: 68.7±4.80%; Output drug/HSPC [10]: 438.9 g/mol; efficiency [10]: 68.7%; Drug payload/carrier weight ratio [11]: 0.4 g drug/g total lipid; Output drug/HSPC [11]: 469 ± 4.9 g/mol; efficiency [11]: 61.7±1.2%; Drug payload/carrier weight ratio [12]: 0.40 g drug/g total lipid; Output drug/HSPC [12]: 468.2 g/mol; efficiency [12]: 61.7%; efficiency of remote loading (room temperature, 3 POPC/2 Chol/0.15 PEG-DSPE liposomes, 187 g drug/mol): 100.52%±1.01%; efficiency of remote loading (room temperature, 95 PChemsPC/5 PEG-DSPE liposomes, 100 g drug/mol PChemsPC): 95.5%±1.23%; efficiency of remote loading (trapping agent mellitic acid, 100 g drug/mol HSPC): 37.4%±2.01%; efficiency of remote loading (trapping agent napthelenedisulfonic acid, 100 g drug/mol HSPC): 95.1%±1.76%; efficiency [13]: 65.9±1.98%; greatest payload achieved [13]: 440±12.6 g drug/mol HSPC

— patent publication US20140220110A1, “REMOTE LOADING OF SPARINGLY WATER-SOLUBLE DRUGS INTO LIPOSOMES” (ZONEONE PHARMA, INC., priority 2013, published 2014)
